Experimental data from patent publication US20250215012A1, “IKZF2 DEGRADERS AND USES THEREOF” (REGENTS OF THE UNIVERSITY OF MICHIGAN, priority 2022, published 2025).

Biological target: IKZF2 (Homo sapiens (Human), UniProt Q96SW2+Q9UKS7)
Assay: IKZF2 HiBiT Assay (Jurkat-IKZF2-HiBiT cell line)
Assay type: cell-based
Conditions: Jurkat-IKZF2-HiBiT cells, 24 hours; for DC50: read-out: HiBit assay degradation analysis DC50; for Dmax: read-out: HiBit assay degradation analysis Dmax
How it was run: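 IKZF2 degradation was assessed as HiBiT luminescence in Jurkat-IKZF2-HiBiT cells, using lytic detection after 24 h of compound treatment at 37 °C, 5% CO2.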

IKZF2, sequence (Q9UKS7 whole entry): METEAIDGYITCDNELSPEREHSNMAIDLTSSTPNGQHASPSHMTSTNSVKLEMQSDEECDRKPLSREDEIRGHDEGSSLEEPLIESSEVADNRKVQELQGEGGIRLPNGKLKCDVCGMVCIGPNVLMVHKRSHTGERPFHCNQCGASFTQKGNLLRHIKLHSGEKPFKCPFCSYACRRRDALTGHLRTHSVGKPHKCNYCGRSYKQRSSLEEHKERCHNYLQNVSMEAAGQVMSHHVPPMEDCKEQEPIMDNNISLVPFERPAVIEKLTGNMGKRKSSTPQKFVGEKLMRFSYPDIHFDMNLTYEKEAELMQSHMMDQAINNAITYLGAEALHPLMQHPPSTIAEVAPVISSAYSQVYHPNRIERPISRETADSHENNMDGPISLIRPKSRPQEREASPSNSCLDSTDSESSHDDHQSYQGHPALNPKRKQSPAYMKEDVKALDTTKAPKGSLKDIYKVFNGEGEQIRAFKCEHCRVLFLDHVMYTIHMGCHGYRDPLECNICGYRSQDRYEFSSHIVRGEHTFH
IKZF2, sequence (Q96SW2 whole entry): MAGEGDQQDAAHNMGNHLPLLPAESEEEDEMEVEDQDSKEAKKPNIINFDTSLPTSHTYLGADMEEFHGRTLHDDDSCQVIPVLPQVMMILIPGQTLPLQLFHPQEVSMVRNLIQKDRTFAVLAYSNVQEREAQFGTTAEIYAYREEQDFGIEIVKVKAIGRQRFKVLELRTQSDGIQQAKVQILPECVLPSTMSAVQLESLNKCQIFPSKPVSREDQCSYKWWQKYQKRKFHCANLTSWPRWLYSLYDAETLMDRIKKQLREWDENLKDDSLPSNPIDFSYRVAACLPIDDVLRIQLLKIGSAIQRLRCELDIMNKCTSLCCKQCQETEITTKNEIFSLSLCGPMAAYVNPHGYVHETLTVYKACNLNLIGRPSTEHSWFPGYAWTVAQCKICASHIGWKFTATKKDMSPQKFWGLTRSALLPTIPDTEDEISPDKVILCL
IKZF2, sequence (Q16531 whole entry partner): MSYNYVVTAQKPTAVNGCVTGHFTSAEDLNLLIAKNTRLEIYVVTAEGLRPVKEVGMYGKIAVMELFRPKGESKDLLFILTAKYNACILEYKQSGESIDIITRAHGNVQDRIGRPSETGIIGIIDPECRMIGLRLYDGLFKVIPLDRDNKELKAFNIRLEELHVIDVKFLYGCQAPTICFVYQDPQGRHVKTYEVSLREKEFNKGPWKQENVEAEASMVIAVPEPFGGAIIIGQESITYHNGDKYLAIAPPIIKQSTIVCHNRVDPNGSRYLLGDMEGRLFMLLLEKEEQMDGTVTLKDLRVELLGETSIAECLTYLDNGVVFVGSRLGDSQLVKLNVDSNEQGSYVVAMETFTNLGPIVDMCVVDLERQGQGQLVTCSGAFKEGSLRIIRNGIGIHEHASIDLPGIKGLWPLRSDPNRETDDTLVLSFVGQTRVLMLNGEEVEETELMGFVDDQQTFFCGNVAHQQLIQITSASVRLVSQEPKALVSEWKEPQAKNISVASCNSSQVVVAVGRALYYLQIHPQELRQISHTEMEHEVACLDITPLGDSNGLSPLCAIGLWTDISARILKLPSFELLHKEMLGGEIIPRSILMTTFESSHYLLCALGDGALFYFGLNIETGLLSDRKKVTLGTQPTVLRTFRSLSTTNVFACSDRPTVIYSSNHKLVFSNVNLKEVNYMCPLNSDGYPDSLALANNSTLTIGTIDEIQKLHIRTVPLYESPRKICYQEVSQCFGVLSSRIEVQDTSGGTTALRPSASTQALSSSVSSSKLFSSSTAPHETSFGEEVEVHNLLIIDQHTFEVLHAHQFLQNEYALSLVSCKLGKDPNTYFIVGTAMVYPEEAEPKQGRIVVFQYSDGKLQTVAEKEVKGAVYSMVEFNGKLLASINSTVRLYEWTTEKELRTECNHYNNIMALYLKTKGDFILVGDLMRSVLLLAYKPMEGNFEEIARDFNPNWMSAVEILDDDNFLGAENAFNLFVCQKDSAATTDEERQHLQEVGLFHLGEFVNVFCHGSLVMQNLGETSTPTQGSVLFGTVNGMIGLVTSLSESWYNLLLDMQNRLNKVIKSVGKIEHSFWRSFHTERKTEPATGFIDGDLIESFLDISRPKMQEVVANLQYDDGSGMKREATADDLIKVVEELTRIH

O=C1CCC(N2Cc3c(ccc4c3OCC43CCN(Cc4cccc(C(F)F)c4)CC3)C2=O)C(=O)N1 (stereo not drawn) [Compound A94, 3-(1′-(3-(difluoromethyl)benzyl)-6-oxo-6,8-dihydro-2H,7H-spiro[furo[2,3-e]isoindole-3,4′-piperidin]-7-yl)piperidine-2,6-dione]
DC50: 200 to 500 nM | Dmax: 40 to 60%

O=C1CCC(N2Cc3c(ccc4c3OCC43CCN(Cc4ccn5nccc5c4)CC3)C2=O)C(=O)N1 (stereo not drawn) [Compound A80, 3-(6-oxo-1′-(pyrazolo[1,5-a]pyridin-5-ylmethyl)-6,8-dihydro-2H,7H-spiro[furo[2,3-e]isoindole-3,4′-piperidin]-7-yl)piperidine-2,6-dione]
DC50: > 500 nM | Dmax: < 40%

COc1ccc(CN2CCC3(CC2)COc2c3ccc3c2CN(C2CCC(=O)NC2=O)C3=O)cc1 (stereo not drawn) [Compound A211, 3-(1′-(4-methoxybenzyl)-6-oxo-6,8-dihydro-2H,7H-spiro[furo[2,3-e]isoindole-3,4′-piperidin]-7-yl)piperidine-2,6-dione]
DC50: > 500 nM | Dmax: < 40%

O=C1CCC(N2Cc3c(ccc4c3OCC43CCN(Cc4cnc5[nH]ccc5c4)CC3)C2=O)C(=O)N1 (stereo not drawn) [Compound A163, 3-(1′-((1H-pyrrolo[2,3-b]pyridin-5-yl)methyl)-6-oxo-6,8-dihydro-2H,7H-spiro[furo[2,3-e]isoindole-3,4′-piperidin]-7-yl)piperidine-2,6-dione]
DC50: < 50 nM | Dmax: 60 to 80%

O=C1CCC(N2Cc3c(ccc4c3OCC43CCN(Cc4c(F)ccc5occc45)CC3)C2=O)C(=O)N1 (stereo not drawn) [Compound A223, 3-(1′-((5-fluorobenzofuran-4-yl)methyl)-6-oxo-6,8-dihydro-2H,7H-spiro[furo[2,3-e]isoindole-3,4′-piperidin]-7-yl)piperidine-2,6-dione]
DC50: 200 to 500 nM | Dmax: 40 to 60%

O=C1CCC(N2Cc3c(ccc4c3OCC43CCN(Cc4ccc(C5CC5)cc4)CC3)C2=O)C(=O)N1 (stereo not drawn) [Compound A205, 3-(1′-(4-cyclopropylbenzyl)-6-oxo-6,8-dihydro-2H,7H-spiro[furo[2,3-e]isoindole-3,4′-piperidin]-7-yl)piperidine-2,6-dione]
DC50: 200 to 500 nM | Dmax: 40 to 60%

O=C1CC[C@H](N2Cc3c(ccc4c3OCC43CCN(Cc4cccc(-c5cnn(C[C@@H]6CCO6)c5)c4)CC3)C2=O)C(=O)N1 [Compound A274, (S)-3-(1′-(3-(1-(((S)-oxetan-2-yl)methyl)-1H-pyrazol-4-yl)benzyl)-6-oxo-6,8-dihydro-2H,7H-spiro[furo[2,3-e]isoindole-3,4′-piperidin]-7-yl)piperidine-2,6-dione]
DC50: 50 to 200 nM | Dmax: 60 to 80%

O=C1CCC(N2Cc3c(ccc4c3COC43CCN(Cc4cccc(-c5cc[nH]n5)c4)CC3)C2=O)C(=O)N1 (stereo not drawn) [Compound A260, 3-(1′-(3-(1H-pyrazol-3-yl)benzyl)-6-oxo-6,8-dihydrospiro[furo[3,4-e]isoindoline-3,4′-piperidin]-7(1H)-yl)piperidine-2,6-dione]
DC50: > 500 nM | Dmax: 40 to 60%

CS(=O)(=O)c1ccccc1CN1CCC2(CC1)COc1c2ccc2c1CN(C1CCC(=O)NC1=O)C2=O (stereo not drawn) [Compound A234, 3-(1′-(2-(methylsulfonyl)benzyl)-6-oxo-6,8-dihydro-2H,7H-spiro[furo[2,3-e]isoindole-3,4′-piperidin]-7-yl)piperidine-2,6-dione]
DC50: > 500 nM | Dmax: < 40%

O=C1CCC(N2Cc3c(ccc4c3OCC43CCN(Cc4ccc(OCc5ccccc5)nc4)CC3)C2=O)C(=O)N1 (stereo not drawn) [Compound A339, 3-(1′-((6-(benzyloxy)pyridin-3-yl)methyl)-6-oxo-6,8-dihydro-2H,7H-spiro[furo[2,3-e]isoindole-3,4′-piperidin]-7-yl)piperidine-2,6-dione]
DC50: > 500 nM | Dmax: 40 to 60%

COc1ncc(CN2CCC3(CC2)COc2c3ccc3c2CN(C2CCC(=O)NC2=O)C3=O)cn1 (stereo not drawn) [Compound A26, 3-(1′-((2-methoxypyrimidin-5-yl)methyl)-6-oxo-6,8-dihydro-2H,7H-spiro[furo[2,3-e]isoindole-3,4′-piperidin]-7-yl)piperidine-2,6-dione]
DC50: > 500 nM | Dmax: < 40%

O=C1CCC(N2Cc3c(ccc4c3OCC43CCN(Cc4cnn(Cc5ccc(F)cc5)c4)CC3)C2=O)C(=O)N1 (stereo not drawn) [Compound A237, 3-(1′-((1-(4-fluorobenzyl)-1H-pyrazol-4-yl)methyl)-6-oxo-6,8-dihydro-2H,7H-spiro[furo[2,3-e]isoindole-3,4′-piperidin]-7-yl)piperidine-2,6-dione]
DC50: 50 to 200 nM | Dmax: 60 to 80%

O=C1CCC(N2Cc3c(ccc4c3OCC43CCN(Cc4cccc5sccc45)CC3)C2=O)C(=O)N1 (stereo not drawn) [Compound A186, 3-(1′-(benzo[b]thiophen-4-ylmethyl)-6-oxo-6,8-dihydro-2H,7H-spiro[furo[2,3-e]isoindole-3,4′-piperidin]-7-yl)piperidine-2,6-dione]
DC50: < 50 nM | Dmax: > 80%

Cn1ncc2cc(CN3CCC4(CC3)COc3c4ccc4c3CN(C3CCC(=O)NC3=O)C4=O)ccc21 (stereo not drawn) [Compound A217, 3-(1′-((1-methyl-1H-indazol-5-yl)methyl)-6-oxo-6,8-dihydro-2H,7H-spiro[furo[2,3-e]isoindole-3,4′-piperidin]-7-yl)piperidine-2,6-dione]
DC50: > 500 nM | Dmax: < 40%

Cn1ncc(-c2cccc(CN3CCC4(CC3)COc3c4ccc4c3CN([C@H]3CCC(=O)NC3=O)C4=O)c2)n1 [Compound A296, (S)-3-(1′-(3-(2-methyl-2H-1,2,3-triazol-4-yl)benzyl)-6-oxo-6,8-dihydro-2H,7H-spiro[furo[2,3-e]isoindole-3,4′-piperidin]-7-yl)piperidine-2,6-dione]
DC50: < 50 nM | Dmax: 60 to 80%

CCn1cc2ccc(CN3CCC4(CC3)COc3c4ccc4c3CN([C@H]3CCC(=O)NC3=O)C4=O)cc2n1 [Compound A299, (S)-3-(1′-((2-ethyl-2H-indazol-6-yl)methyl)-6-oxo-6,8-dihydro-2H,7H-spiro[furo[2,3-e]isoindole-3,4′-piperidin]-7-yl)piperidine-2,6-dione]
DC50: < 50 nM | Dmax: 60 to 80%

O=C1CC[C@H](N2Cc3c(ccc4c3OCC43CCN(Cc4cccc(-c5cnn([C@@H]6CCOC6)c5)c4)CC3)C2=O)C(=O)N1 [Compound A270, (S)-3-(6-oxo-1′-(3-(1-((R)-tetrahydrofuran-3-yl)-1H-pyrazol-4-yl)benzyl)-6,8-dihydro-2H,7H-spiro[furo[2,3-e]isoindole-3,4′-piperidin]-7-yl)piperidine-2,6-dione]
DC50: < 50 nM | Dmax: 60 to 80%

O=C1CCC(N2Cc3c(ccc4c3OCC43CCN(Cc4ccc5[nH]ncc5c4)CC3)C2=O)C(=O)N1 (stereo not drawn) [Compound A198, 3-(1′-((1H-indazol-5-yl)methyl)-6-oxo-6,8-dihydro-2H,7H-spiro[furo[2,3-e]isoindole-3,4′-piperidin]-7-yl)piperidine-2,6-dione]
DC50: 200 to 500 nM | Dmax: 60 to 80%

COCCn1cc2ccc(CN3CCC4(CC3)COc3c4ccc4c3CN([C@H]3CCC(=O)NC3=O)C4=O)cc2n1 [Compound A287, (S)-3-(1′-((2-(2-methoxyethyl)-2H-indazol-6-yl)methyl)-6-oxo-6,8-dihydro-2H,7H-spiro[furo[2,3-e]isoindole-3,4′-piperidin]-7-yl)piperidine-2,6-dione]
DC50: < 50 nM | Dmax: 60 to 80%

O=C1CCC(N2Cc3c(ccc4c3OCC43CCN(Cc4ccc5nn(CCO)cc5c4)CC3)C2=O)C(=O)N1 (stereo not drawn) [Compound A345, 3-(1′-((2-(2-hydroxyethyl)-2H-indazol-5-yl)methyl)-6-oxo-6,8-dihydro-2H,7H-spiro [furo[2,3-e]isoindole-3,4′-piperidin]-7-yl)piperidine-2,6-dione]
DC50: > 500 nM | Dmax: < 40%

O=C1CCC(N2Cc3c(ccc4c3OCC43CCN(C[C@H]4C[C@H](Oc5ccc(F)cc5)C4)CC3)C2=O)C(=O)N1 (stereo partly drawn) [Compound A356, 3-(1′-(((1r,3r)-3-(4-fluorophenoxy)cyclobutyl)methyl)-6-oxo-6,8-dihydro-2H,7H-spiro[furo[2,3-e]isoindole-3,4′-piperidin]-7-yl)piperidine-2,6-dione]
DC50: > 500 nM

O=C1CCC(N2Cc3c(ccc4c3OCC43CCN(Cc4cccc5cc[nH]c45)CC3)C2=O)C(=O)N1 (stereo not drawn) [Compound A59, 3-(1′-((1H-indol-7-yl)methyl)-6-oxo-6,8-dihydro-2H,7H-spiro[furo[2,3-e]isoindole-3,4′-piperidin]-7-yl)piperidine-2,6-dione]
DC50: 50 to 200 nM | Dmax: > 80%

O=C1CCC(N2Cc3c(ccc4c3OCC43CCN(Cc4ccn(-c5ccc(F)cc5)n4)CC3)C2=O)C(=O)N1 (stereo not drawn) [Compound A322, 3-(1′-((1-(4-fluorophenyl)-1H-pyrazol-3-yl)methyl)-6-oxo-6,8-dihydro-2H,7H-spiro[furo[2,3-e]isoindole-3,4′-piperidin]-7-yl)piperidine-2,6-dione]
DC50: > 500 nM | Dmax: < 40%

O=C1CCC(N2Cc3c(ccc4c3OCCC43CCN(Cc4ccccc4)CC3)C2=O)C(=O)N1 (stereo not drawn) [Compound A13, 3-(1-benzyl-7′-oxo-2′,3′,7′,9′-tetrahydro-8′H-spiro[piperidine-4,4′-pyrano[2,3-e]isoindol]-8′-yl)piperidine-2,6-dione]
DC50: > 500 nM | Dmax: < 40%

Cn1cc(CN2CCC3(CC2)COc2c3ccc3c2CN(C2CCC(=O)NC2=O)C3=O)cn1 (stereo not drawn) [Compound A228, 3-(1′-((1-methyl-1H-pyrazol-4-yl)methyl)-6-oxo-6,8-dihydro-2H,7H-spiro[furo[2,3-e]isoindole-3,4′-piperidin]-7-yl)piperidine-2,6-dione]
DC50: > 500 nM | Dmax: < 40%

Cc1c2ccc(CN3CCC4(CC3)COc3c4ccc4c3CN([C@H]3CCC(=O)NC3=O)C4=O)cc2nn1C [Compound A295, (S)-3-(1′-((2,3-dimethyl-2H-indazol-6-yl)methyl)-6-oxo-6,8-dihydro-2H,7H-spiro[furo[2,3-e]isoindole-3,4′-piperidin]-7-yl)piperidine-2,6-dione]
DC50: < 50 nM | Dmax: 60 to 80%
